Consider one substance from patent US20230324382A1, “ANTIPHOSPHOLIPID ANTIBODIES FOR THE DIAGNOSIS OF LYME DISEASE” (Trustees of Tufts College, priority 2022, published 2023).

For one test, the system named is E. coli. The test is described as follows: Incorporation of NBD-PC, other species. Type of test: cell-based, Escherichia coli MG1655. The conditions noted are these: 25 μM NBD-PC, 4 hours. As to the method:
(§1) Cells were grown to a stationary phase (5 days) in BSK and then pelleted (5 minutes at 3220 g), washed once in an equal volume of PBS, and resuspended in an equal volume of dBSK. The cell suspension (1 mL) was added to nitrobenzoxadiazole-labeled (NBD-labeled) phospholipids (Avanti) to 25 μM. At hourly intervals, the cells were pelleted (5 minutes at 18,800 g), washed 3 times in 1 mL PBS, and resuspended in 100 μL PBS. The suspensions were transferred onto clear-bottomed, opaque 96-well plates (Corning), and fluorescence was recorded at excitation 460 nm/emission 540 nm (Ex460/Em540). Staphylococcus aureus 502a and Escherichia coli MG1655 were grown overnight in tryptic soy broth (TSB): tryptone (17.0 g/L), soytone (3.0), glucose (2.5), sodium chloride (5.0), and dipotassium phosphate (2.5). Incorporation of NBD-phospholipids was carried out in TSB, with subsequent washing and measurement as above.
(§2) After fluorescence measurements, 5 μL cell suspensions were spotted onto glass slides and fixed with 5 μL ProLong Gold (Thermo Fisher Scientific) with DAPI. […] For all 3 bacterial species imaged, the laser power was calibrated such that minimal autofluorescence was detected in unlabeled cells prior to imaging of the labeled cells.

A further test has as its system S. aureus. The test is described as follows: Incorporation of NBD-PC, other species. To be noted: 25 μM NBD-PC, 4 hours. Type of test: cell-based, Staphylococcus aureus 502a. On the procedure: as §1, §2
A further test deals with B. burgdorferi. The experiment in a line: Retention of NBD-PC in the membrane after transfer to rich medium. Type of test: cell-based, Borrelia burgdorferi. The text has this:
FIG. 12 is a graph illustrating that phospholipids are retained in the membrane in the absence of an environmental source. B. burgdorferi was labelled with NBD-PC in lipid-depleted dBSK medium for four hours, washed, and resuspended in rich medium. […] Points are the mean of three biological replicates, with error bars the standard deviation.
This is indicative of nonspecific uptake and is consistent with a model of random diffusion into the membrane. Fluorescence was detectable for up to 4 days after the initial labeling, with a half-life of approximately 1 day (FIG. 12).

As for NBD-PC, the “entry of fluorescent phospholipid into membranes” value in the test with E. coli and in the test on S. aureus was “did not enter the membranes” throughout. For the same substance, the “fluorescence intensity as % of D0” value is listed as 56% in the test with B. burgdorferi (day 1) and around 7% with B. burgdorferi (day 4).
